Patent US4087432A, “1H-imidazo(4,5-b)pyridine compounds” (Eli Lilly and Company, priority 1975, dated 1978)

Key:
[1] = test system: Corn; test: Postemergent injury rating, corn; assay type: in vivo; design: key: injury rating scale, 4 = death; conditions: 8 lbs/acre
Procedure: (§1) Various of the compounds to be employed as active agent in accordance with the present invention were evaluated for preemergent application to various species of plants. In this evaluation, a soil was prepared consisting of one part masonry sand and one part shredded top soil blended together in a cement mixer. One gallon of this soil was placed in a 25 × 35 cm. galvanized flat and was patted down with a bench brush until level. A three-row marker was used to make 21/2 cm. deep furrows in approximately two-fifths of the flat. Crop seeds consisting of four kernels of corn, five cotton seeds and five soybean seeds were placed in these furrows. A four-row template was then placed on the remaining soil and the indicated approximate numbers of each of the following seeds were planted, one species to each section: foxtail (millet), 80-100 seeds; velvetleaf (40-50 seeds); rough pigweed (150-250 seeds); and large crabgrass (100-150 seeds).
(§2) Sufficient soil was added to cover the entire flat. Thus, the weed seeds were covered to a depth of about 6 mm. and the crop seeds were covered to a depth of about 3 cm.
(§3) In assaying the effect of the composition as preemergent herbicides, a flat prepared as above, taken either on the day of planting or on the next day, was placed in a chamber equipped with a turntable and an air exhaust. The herbicidal composition, either a spray-type emulsion or a wettable powder, was applied to the flat with a modified DeVilbiss atomizer hooked to an air source. Twelve and one-half milliliters of the composition under test were applied to each flat either on the day of planting or the succeeding day. Injury ratings and observations as to type of injury were made eleven to twelve days after treatment. The injury rating scale used was as follows:
(§4) 4--death When more than one determination was carried out at a given rate, an average value was calculated for the injury rating. Each compound evaluated was formulated as a spray by one of the following procedures. In one method the particular compound was wetted by grinding in a mortar with one part of polyoxyethylene sorbitan monolaurate. Five hundred parts of water were added slowly to the resultant creamy paste to give an aqueous dispersion with a surfactant concentration of 0.2 percent. This dispersion was entirely satisfactory for spray application. In a second procedure the compound was dissolved in one volume of acetone, and the acetone solution was diluted with nineteen volumes of water containing 0.1 percent of polyoxyethylene sorbitan monolaurate.
(§5) Representative compounds of the present invention were evaluated for postemergent application to plants including corn and several weed species. The evaluation was carried out in accordance with the procedures of Examples 49-52 except that the test solutions were applied about 9-12 days after the preparation and seeding of the flats.

[2] = test system: Pigweed; test: Postemergent injury rating, pigweed; assay type: in vivo, rough pigweed; design: key: injury rating scale, 4 = death; conditions: 8 lbs/acre
Procedure: as §1, §2, §3, §4, §5

[3] = test system: Foxtail; test: Postemergent injury rating, foxtail; assay type: in vivo, foxtail (millet); design: key: injury rating scale, 4 = death; conditions: 8 lbs/acre
Procedure: as §1, §2, §3, §4, §5

[4] = test system: Velvet Leaf; test: Postemergent injury rating, velvetleaf; assay type: in vivo; conditions: 8 lbs/acre
Procedure: as §1, §2, §3, §4, §5

[5] = test system: Crabgrass; test: Postemergent injury rating, crabgrass; assay type: in vivo, large crabgrass; design: key: injury rating scale, 4 = death; conditions: 8 lbs/acre
Procedure: as §1, §2, §3, §4, §5

[6] = test system: Johnson Grass; test: General herbicidal effect alone/in combination, Johnson grass; assay type: in vivo; conditions: alone
Procedure: as §1, §2, §3, §4
(§6) 6-Chloro-1-hydroxy-2-(trifluoromethyl)-1H-imidazo(4,5-b)pyridine was evaluated in combination with 2-chloro-4-ethylamino-6-isopropylamino-s-triazine and separately in combination with 2-chloro-2',6'-diethyl-N-(methoxymethyl)acetanilide for the control of plants. The evaluations were conducted as described in Examples 49-52, except that the rates of compound differed and the species were different. General herbicidal effect was rated on a scale of 0-10, with 0 = no injury and 10 = death. Observations were also made for the following other specific phytotoxic effects.

[7] = test system: Rice; test: General herbicidal effect alone/in combination, rice; assay type: in vivo; design: key: 0-10 scale: 0 = no injury, 10 = death; conditions: alone
Procedure: as §1, §2, §3, §4, §6

[8] = test system: Jimsonweed; test: General herbicidal effect alone/in combination, jimsonweed; assay type: in vivo; design: key: 0-10 scale: 0 = no injury, 10 = death; conditions: alone
Procedure: as §1, §2, §3, §4, §6

[9] = test system: Corn; test: General herbicidal effect alone/in combination, corn (second Corn column); assay type: in vivo; design: key: 0-10 scale: 0 = no injury, 10 = death; conditions: alone
Procedure: as §1, §2, §3, §4, §6

[10] = test system: Barnyard Grass; test: General herbicidal effect alone/in combination, barnyard grass; assay type: in vivo; design: key: 0-10 scale: 0 = no injury, 10 = death; conditions: alone
Procedure: as §1, §2, §3, §4, §6

[11] = test system: Velvet Leaf; test: General herbicidal effect alone/in combination, velvetleaf; assay type: in vivo; design: key: 0-10 scale: 0 = no injury, 10 = death; conditions: alone
Procedure: as §1, §2, §3, §4, §6

[12] = test system: Pigweed; test: General herbicidal effect alone/in combination, pigweed; assay type: in vivo; design: key: 0-10 scale: 0 = no injury, 10 = death; conditions: alone
Procedure: as §1, §2, §3, §4, §6

[13] = test system: Lambs Quarter; test: General herbicidal effect alone/in combination, lambsquarter; assay type: in vivo; design: key: 0-10 scale: 0 = no injury, 10 = death; conditions: alone
Procedure: as §1, §2, §3, §4, §6

[14] = test system: Morning glory; test: General herbicidal effect alone/in combination, morning glory; assay type: in vivo; design: key: 0-10 scale: 0 = no injury, 10 = death; conditions: alone
Procedure: as §1, §2, §3, §4, §6

[15] = test system: Foxtail Millet; test: General herbicidal effect alone/in combination, foxtail millet; assay type: in vivo; design: key: 0-10 scale: 0 = no injury, 10 = death; conditions: alone
Procedure: as §1, §2, §3, §4, §6

[16] = test system: Sorghum; test: General herbicidal effect alone/in combination, sorghum; assay type: in vivo; design: key: 0-10 scale: 0 = no injury, 10 = death; conditions: alone
Procedure: as §1, §2, §3, §4, §6

[17] = test system: Large Crabgrass; test: General herbicidal effect alone/in combination, large crabgrass; assay type: in vivo; design: key: 0-10 scale: 0 = no injury, 10 = death; conditions: alone
Procedure: as §1, §2, §3, §4, §6

[18] = test system: Ragweed; test: General herbicidal effect alone/in combination, ragweed; assay type: in vivo; design: key: 0-10 scale: 0 = no injury, 10 = death; conditions: alone
Procedure: as §1, §2, §3, §4, §6

[19] = test system: Corn; test: General herbicidal effect alone/in combination, corn (first Corn column); assay type: in vivo; design: key: 0-10 scale: 0 = no injury, 10 = death; conditions: alone
Procedure: as §1, §2, §3, §4, §6

Cc1cnc2nc(C(F)(F)F)n(O)c2c1 [6-methyl-1-hydroxy-2-(trifluoromethyl)-1H-imidazo(4,5-b)pyridine]
Injury Rating, Corn [1]: 1
Injury Rating, Pigweed [2]: 3
Injury Rating, Foxtail [3]: 3
Injury Rating, Velvet Leaf [4]: 1
Injury Rating, Crabgrass [5]: 3

CCNc1nc(Cl)nc(NC(C)C)n1 [B, 2-chloro-4-ethylamino-6-isopropylamino-s-triazine]
herbicidal effect, Johnson Grass ([6]; 0.25 lbs/A): 3S
herbicidal effect, Johnson Grass ([6]; 0.5 lbs/A): 0
herbicidal effect, Johnson Grass ([6]; 1.0 lbs/A): 0
herbicidal effect, Johnson Grass ([6]; 2.0 lbs/A): 2S
herbicidal effect, Rice ([7]; 0.25 lbs/A): 4B
herbicidal effect, Rice ([7]; 0.5 lbs/A): 4B
herbicidal effect, Rice ([7]; 1.0 lbs/A): 7B
herbicidal effect, Rice ([7]; 2.0 lbs/A): 8B
herbicidal effect, Jimsonweed ([8]; 0.25 lbs/A): 9BS
herbicidal effect, Jimsonweed ([8]; 0.5 lbs/A): 9BS
herbicidal effect, Jimsonweed ([8]; 1.0 lbs/A): 9BS
herbicidal effect, Jimsonweed ([8]; 2.0 lbs/A): 9BS
herbicidal effect, Corn ([9]; 0.25 lbs/A): 0
herbicidal effect, Corn ([9]; 0.5 lbs/A): 0
herbicidal effect, Corn ([9]; 1.0 lbs/A): 0
herbicidal effect, Corn ([9]; 2.0 lbs/A): 0
herbicidal effect, Barnyard Grass ([10]; 0.25 lbs/A): 2S
herbicidal effect, Barnyard Grass ([10]; 0.5 lbs/A): 5SB
herbicidal effect, Barnyard Grass ([10]; 1.0 lbs/A): 4SB
herbicidal effect, Barnyard Grass ([10]; 2.0 lbs/A): 8BS
herbicidal effect, Velvet leaf ([11]; 0.25 lbs/A): 3S
herbicidal effect, Velvet leaf ([11]; 0.5 lbs/A): 3S
herbicidal effect, Velvet leaf ([11]; 1.0 lbs/A): 7BS
herbicidal effect, Velvet leaf ([11]; 2.0 lbs/A): 10D
herbicidal effect, Pigweed ([12]; 0.25 lbs/A): 9BS
herbicidal effect, Pigweed ([12]; 0.5 lbs/A): 10D
herbicidal effect, Pigweed ([12]; 1.0 lbs/A): 10D
herbicidal effect, Pigweed ([12]; 2.0 lbs/A): 10D
herbicidal effect, Lambs Quarter ([13]; 0.25 lbs/A): 9BS
herbicidal effect, Lambs Quarter ([13]; 0.5 lbs/A): 9BS
herbicidal effect, Lambs Quarter ([13]; 1.0 lbs/A): 9.5BS
herbicidal effect, Lambs Quarter ([13]; 2.0 lbs/A): 9.5BS
herbicidal effect, Morning glory ([14]; 0.25 lbs/A): 8BS
herbicidal effect, Morning glory ([14]; 0.5 lbs/A): 9BS
herbicidal effect, Morning glory ([14]; 1.0 lbs/A): 10D
herbicidal effect, Morning glory ([14]; 2.0 lbs/A): 10D
herbicidal effect, Foxtail Millet ([15]; 0.25 lbs/A): 0
herbicidal effect, Foxtail Millet ([15]; 0.5 lbs/A): 0
herbicidal effect, Foxtail Millet ([15]; 1.0 lbs/A): 4SB
herbicidal effect, Foxtail Millet ([15]; 2.0 lbs/A): 5SB
herbicidal effect, Sorghum ([16]; 0.25 lbs/A): 0
herbicidal effect, Sorghum ([16]; 0.5 lbs/A): 0
herbicidal effect, Sorghum ([16]; 1.0 lbs/A): 1B
herbicidal effect, Sorghum ([16]; 2.0 lbs/A): 2B
herbicidal effect, Large Crabgrass ([17]; 0.25 lbs/A): 0
herbicidal effect, Large Crabgrass ([17]; 0.5 lbs/A): 2S
herbicidal effect, Large Crabgrass ([17]; 1.0 lbs/A): 5S
herbicidal effect, Large Crabgrass ([17]; 2.0 lbs/A): 6BS
herbicidal effect, Ragweed ([18]; 0.25 lbs/A): 5S
herbicidal effect, Ragweed ([18]; 0.5 lbs/A): 7SB
herbicidal effect, Ragweed ([18]; 1.0 lbs/A): 8BS
herbicidal effect, Ragweed ([18]; 2.0 lbs/A): 10D
herbicidal effect, Corn ([19]; 0.25 lbs/A): 0
herbicidal effect, Corn ([19]; 0.5 lbs/A): 0
herbicidal effect, Corn ([19]; 1.0 lbs/A): 0
herbicidal effect, Corn ([19]; 2.0 lbs/A): 0

CCc1cccc(CC)c1N(COC)C(=O)CCl [C, 2-chloro-2',6'-diethyl-N-(methoxymethyl)acetanilide]
herbicidal effect, Johnson Grass ([6]; 0.5 lbs/A): 9RS
herbicidal effect, Johnson Grass ([6]; 1.0 lbs/A): 9RS
herbicidal effect, Johnson Grass ([6]; 2.0 lbs/A): 9.5RS
herbicidal effect, Johnson Grass ([6]; 4.0 lbs/A): 10N
herbicidal effect, Rice ([7]; 0.5 lbs/A): 0
herbicidal effect, Rice ([7]; 1.0 lbs/A): 9RS
herbicidal effect, Rice ([7]; 2.0 lbs/A): 10N
herbicidal effect, Rice ([7]; 4.0 lbs/A): 10N
herbicidal effect, Jimsonweed ([8]; 0.5 lbs/A): 0
herbicidal effect, Jimsonweed ([8]; 1.0 lbs/A): 3S
herbicidal effect, Jimsonweed ([8]; 2.0 lbs/A): 4S
herbicidal effect, Jimsonweed ([8]; 4.0 lbs/A): 5S
herbicidal effect, Corn ([9]; 0.5 lbs/A): 0
herbicidal effect, Corn ([9]; 1.0 lbs/A): 0
herbicidal effect, Corn ([9]; 2.0 lbs/A): 1SB
herbicidal effect, Corn ([9]; 4.0 lbs/A): 2S
herbicidal effect, Barnyard Grass ([10]; 0.5 lbs/A): 5SR
herbicidal effect, Barnyard Grass ([10]; 1.0 lbs/A): 8S
herbicidal effect, Barnyard Grass ([10]; 2.0 lbs/A): 8RSF
herbicidal effect, Barnyard Grass ([10]; 4.0 lbs/A): 9.5RS
herbicidal effect, Velvet leaf ([11]; 0.5 lbs/A): 2S
herbicidal effect, Velvet leaf ([11]; 1.0 lbs/A): 3S
herbicidal effect, Velvet leaf ([11]; 2.0 lbs/A): 6S
herbicidal effect, Velvet leaf ([11]; 4.0 lbs/A): 3S
herbicidal effect, Pigweed ([12]; 0.5 lbs/A): 7S
herbicidal effect, Pigweed ([12]; 1.0 lbs/A): 8SR
herbicidal effect, Pigweed ([12]; 2.0 lbs/A): 10N
herbicidal effect, Pigweed ([12]; 4.0 lbs/A): 10N
herbicidal effect, Lambs Quarter ([13]; 1.0 lbs/A): 5S
herbicidal effect, Lambs Quarter ([13]; 2.0 lbs/A): 10N
herbicidal effect, Lambs Quarter ([13]; 4.0 lbs/A): 10N
herbicidal effect, Morning glory ([14]; 0.5 lbs/A): 0
herbicidal effect, Morning glory ([14]; 1.0 lbs/A): 2S
herbicidal effect, Morning glory ([14]; 2.0 lbs/A): 2SF
herbicidal effect, Morning glory ([14]; 4.0 lbs/A): 3SF
herbicidal effect, Foxtail Millet ([15]; 0.5 lbs/A): 9SBR
herbicidal effect, Foxtail Millet ([15]; 1.0 lbs/A): 9RSB
herbicidal effect, Foxtail Millet ([15]; 2.0 lbs/A): 9.5RSB
herbicidal effect, Foxtail Millet ([15]; 4.0 lbs/A): 10D
herbicidal effect, Sorghum ([16]; 0.5 lbs/A): 3SF
herbicidal effect, Sorghum ([16]; 1.0 lbs/A): 4SF
herbicidal effect, Sorghum ([16]; 2.0 lbs/A): 8SF
herbicidal effect, Sorghum ([16]; 4.0 lbs/A): 8SFR
herbicidal effect, Large Crabgrass ([17]; 0.5 lbs/A): 8RS
herbicidal effect, Large Crabgrass ([17]; 1.0 lbs/A): 9RS
herbicidal effect, Large Crabgrass ([17]; 2.0 lbs/A): 10N
herbicidal effect, Large Crabgrass ([17]; 4.0 lbs/A): 10N
herbicidal effect, Ragweed ([18]; 0.5 lbs/A): 0
herbicidal effect, Ragweed ([18]; 1.0 lbs/A): 5S
herbicidal effect, Ragweed ([18]; 2.0 lbs/A): 7S
herbicidal effect, Ragweed ([18]; 4.0 lbs/A): 8SR
herbicidal effect, Corn ([19]; 0.5 lbs/A): 0
herbicidal effect, Corn ([19]; 1.0 lbs/A): 0
herbicidal effect, Corn ([19]; 2.0 lbs/A): 2S
herbicidal effect, Corn ([19]; 4.0 lbs/A): 2S
